Test results taken from patent US20250177366A1, “COMPOSITIONS AND METHODS FOR ALLEVIATING PAIN AND REDUCING ADVERSIVENESS OF STIMULI” (UNIVERSITY OF WASHINGTON, priority 2021, published 2025).

Tests used:
larval zebrafish = test: AITC aversion assay (chemical attraction/aversion, AITC-infused agarose); assay type: in vivo, Zebrafish (Danio rerio); conditions: AITC 100 mM in agarose
From the text: Whether the effects of AS1 extended beyond noxious temperature sensation or could also impact other somatosensory modalities was next explored. To accomplish this, a chemical attraction/aversion assay where a thin layer of agarose was deposited along the edges of a square arena (Jordi et al., Sci. Adv. 2018; 4:1-15) were adapted. Along one wall, the agarose contained the chemical to be tested, while the other three walls were lined with control agarose. It was anticipated that a chemical gradient would be established as chemical diffused from the agarose into the surrounding water. Larvae were pre-incubated in either vehicle or AS1 and then added to the arena and the distance of each larva from the chemical-infused agarose was measured. In control experiments where all four walls of the arena were lined with agarose only, AS1 and vehicle-treated larvae were dispersed evenly throughout the arena (FIG. 3). […] When the nociceptive chemical AITC (100 mM, 10,000× maximal effective dose) was tested, vehicle-treated larvae swam away from the AITC source.
Chemical attraction/aversion assays. The agarose attraction/aversion assay was adapted from previously described experiments (Jordi et al., Sci. Adv. 2018; 4:1-15). For the AITC aversion assay, AITC and DMSO were added to molten 0.8% agarose to achieve a final concentration of 100 mM AITC and 2% DMSO. For the AS1 attraction/aversion assay, AS1 and DMSO were added to 0.8% molten agar to achieve final concentrations of 50 mM and 2%, respectively. To construct the test chambers, the lids of 10×10 cm square petri dishes (insert cat #and company) were lined on four sides with either the test (chemical-containing) or plain agarose (300 μL per side) and allowed to solidify. For all experiments, 30-40 randomly selected 6 dpf zebrafish were caught with a 10 mL pipette pump (Bel-Air Products, cat #: 13683C) equipped with a glass wide-bored Pasteur pipet (Fisher Scientific, cat #: 22-037-540) and deposited into a standard 10 cm diameter petri dish (Fisher Scientific, cat #: 07-202-031). As much E2 media as possible was carefully removed using the same pipette. For single incubation experiments, 30 mL of 1× solutions of the control or test chemical was added to each petri dish, and fish were incubated for 10 minutes at 28.5° C. For double incubation experiments, 15 mL of 1× solutions containing control (DMSO) or test chemicals was added to the larvae-containing petri dish. Following a ten minute incubation, 15 mL of the second incubation solution (1× control or test chemical +/−2× AS1) was added to the petri dish, and the fish were incubated for a second ten minute block. The final concentration of DMSO in all solutions was 1%. In all double-incubation experiments, the final concentration of AS1 was 5 μM unless otherwise noted. After completion of the last incubation period, the contents of each petri dish were poured into separate agarose-lined square dishes. Swimming behavior was immediately recorded for 20 minutes using the same high-definition camcorder in the thermal preference assays.

trigeminal neurons = test: CaMPARI neuronal activity assay; assay type: in vivo, Zebrafish (Danio rerio); conditions: 5 μM AS1; 28.5° C. or 37.5° C.
From the text: Brain regions associated with dopaminergic circuitry are specifically activated in the concurrent presence of AS1 and noxious stimuli. It was next sought to determine in an unbiased manner where in the zebrafish nervous system AS1 was exerting its effects by examining neuronal activity in the context of noxious stimuli. […] Many analgesics can act upon multiple different levels of pain transduction circuitry. For example, MORs can be found upon peripheral somatosensory neurons, spinal cord neurons, and numerous neuronal populations in the brain, and both exogenous and endogenous opioids can modulate the activity of any of these neurons (Corder et al., Annu. Rev. Neurosci. 2018; 41: 453-473). To investigate whether peripheral somatosensory neurons were also influenced by AS1, a neuronal activity assay upon transgenic zebrafish expressing the genetically-encoded calcium indicator CaMPARI in all neurons was performed. This fluorescent protein permanently photoconverts from green to red in the presence of a 405 nm light and high calcium (a proxy for neuronal activity), allowing “snapshots” of neuronal activity at a single time point (Fosque et al., Science. 2015; 347(6223):755-760). Fish were exposed to conditions of 28.5° C. or 37.5° C. with or without AS1 in the presence of a blue light, and then the trigeminal ganglia (TG) were surveyed for photoconverted neurons. […]

SMILES: CC(C)c1ccc(C(=O)Nc2ccncc2)cc1 [AS1, 4-propan-2-yl-N-pyridin-4-ylbenzamide]
- attraction/aversion to AITC source (larval zebrafish; 1 μM AS1): unable to induce attraction to AITC
- attraction/aversion to AITC source (larval zebrafish; 2.5 μM AS1): largely replicated the effects of 5 μM AS1
- attraction/aversion to AITC source (larval zebrafish; 5 μM AS1): strongly preferred to be near the AITC source
- Number of photoconverted trigeminal neurons, AS1-treated vs control (trigeminal neurons): No significant difference
